Laboratory results taken from US9487749B2 (priority 2009, dated 2016).
“And” between values parts separate entries of the source, which are not always exact repeats. Identical values can stand only once.

Columns and labels:
[1] = tested on: Lactobacillus acidophilus ATCC #4356; experiment: Lactobacillus acidophilus growth and recovery in a simulated intestinal tract environment; type: cell-based
[2] = tested on: Salmonella typhimurium; experiment: USP Antimicrobial Effectiveness Test (AET) of MSM supplemented TSB; type: cell-based; parameters: key: Colonies too numerous to count (TNTC); settings: 48 hrs
[3] = tested on: Bifidobacterium bifidum ATCC #29521; experiment: Bifidobacterium bifidum growth in media fortified with MSM, 96 hours; type: cell-based
[4] = tested on: Rhinovirus type 14 (ATCC #VR-284); type: cell-based
[5] = tested on: Escherichia coli; experiment: USP <51> AET in cosmetic cream / cosmetic compositions, 28 days; type: cell-based; settings: for Microbial growth (count): 48 hrs-28 days; for Log Reduction from Initial Microorganism Inoculum: 14 Days, 28 Days
Excerpt: (§1) The cosmetic cream matrix into which the MSM was incorporated was preservative free. An additional cream, with a preservative, was also spiked with E. coli and evaluated.

[6] = tested on: Candida albicans; experiment: as above; type: cell-based; settings: for Microbial growth (count): 48 hrs-28 days; for Log Reduction from Initial Microorganism Inoculum: 14 Days, 28 Days
Excerpt: as §1

[7] = tested on: Staphylococcus aureus; experiment: as above; type: cell-based; settings: for Log Reduction from Initial Microorganism Inoculum: 14 Days, 28 Days
Excerpt: as §1

[8] = tested on: Pseudomonas aeruginosa; experiment: as above; type: cell-based; settings: for Microbial growth (count): 48 hrs-28 days; for Log Reduction from Initial Microorganism Inoculum: 14 Days, 28 Days
Excerpt: as §1

[9] = tested on: Aspergillus niger; experiment: as above; type: cell-based; settings: 10% MSM in cosmetic cream without preservative, 48 hrs-28 days
Excerpt: as §1

[10] = tested on: Vero cells (ATCC#CCL-81)
[11] = tested on: Herpes Simplex Virus type 1 (ATCC #VR-260); type: cell-based
[12] = 10% MSM in Preservative Free Cosmetic Composition #1, 48 hours after inoculation
[13] = 10% MSM in Preservative Free Cosmetic Composition #1, 7 days after inoculation
[14] = 10% MSM in cosmetic cream without preservative
[15] = 10% MSM in preservative-free jojoba cosmetic cream
[16] = 10% MSM, Preservative Free Cosmetic Composition #1
[17] = 10% MSM, Preservative Free Cosmetic Composition #2

SMILES: CS(C)(=O)=O [MSM, Methylsulfonylmethane]
- log increase in the next 8 hours after hour 48 ([1]; 5.0% MSM): 3.16 logs
- time to substantial growth rate increase after hour 24 ([1]; 5.0% MSM): 6 h
- log growth of Lactobacillus acidophilus ([1]; 5.0% MSM, hour 36): 8.65 logs
- Log Growth of Lactobacillus acidophilus ([1]; 5.0% MSM, 20 min Gastric): <1.00 log
- Log Growth of Lactobacillus acidophilus ([1]; 5.0% MSM, Hour 3, simulated intestinal fluid): 1.62 log
- Log Growth of Lactobacillus acidophilus ([1]; 5.0% MSM, Hour 8, simulated intestinal fluid): 2.33 log
- Log Growth of Lactobacillus acidophilus ([1]; 5.0% MSM, Hour 24, simulated intestinal fluid): 6.39 log
- Log Growth of Lactobacillus acidophilus ([1]; 5.0% MSM, Hour 30, simulated intestinal fluid): 6.63 log
- Log Growth of Lactobacillus acidophilus ([1]; 5.0% MSM, Hour 36, simulated intestinal fluid): 8.65 log
- Log Growth of Lactobacillus acidophilus ([1]; 5.0% MSM, Hour 48, simulated intestinal fluid): 10.17 log
- Log Growth of Lactobacillus acidophilus ([1]; 5.0% MSM, Hour 54, simulated intestinal fluid): 13.33 log
- Log Growth of Lactobacillus acidophilus ([1]; 5.0% MSM, Hour 60, simulated intestinal fluid): 12.76 log
- Log Growth of Lactobacillus acidophilus ([1]; 5.0% MSM, Hour 72, simulated intestinal fluid): 12.78 log
- Log Growth of Lactobacillus acidophilus ([1]; 5.0% MSM, Starting Inoculum (milk)): 7.02 log
- log increase in the next 8 hours after hour 48 ([1]; […] MSM): 2.07 logs
- Log Growth of Lactobacillus acidophilus ([1]; […] MSM, 20 min Gastric): <1.00 log
- Log Growth of Lactobacillus acidophilus ([1]; […] MSM, Starting Inoculum (milk)): 6.86 log
- AET test results (microorganism count) ([2]; 1:100 dilution of MSM in TSB): TNTC
- AET test results (microorganism count) ([2]; 1:1000 dilution of MSM in TSB): TNTC
- Log Growth of Bifidobacteruim bifidum in Media Fortified with MSM ([3]; 0.125% MSM, Hr 0): 1.12 log
- Log Growth of Bifidobacteruim bifidum in Media Fortified with MSM ([3]; 0.125% MSM, Hr 8): 2.89 log
- Log Growth of Bifidobacteruim bifidum in Media Fortified with MSM ([3]; 0.125% MSM, Hr 16): 7.85 log
- Log Growth of Bifidobacteruim bifidum in Media Fortified with MSM ([3]; 0.125% MSM, Hr 24): 9.06 log
- Log Growth of Bifidobacteruim bifidum in Media Fortified with MSM ([3]; 0.125% MSM, Hr 32): 11.45 log
- Log Growth of Bifidobacteruim bifidum in Media Fortified with MSM ([3]; 0.125% MSM, Hr 40): 10.80 log
- Log Growth of Bifidobacteruim bifidum in Media Fortified with MSM ([3]; 0.125% MSM, Hr 48): 8.22 log
- Log Growth of Bifidobacteruim bifidum in Media Fortified with MSM ([3]; 0.125% MSM, Hr 56): 7.25 log
- Log Growth of Bifidobacteruim bifidum in Media Fortified with MSM ([3]; 0.125% MSM, Hr 64): 8.86 log
- Log Growth of Bifidobacteruim bifidum in Media Fortified with MSM ([3]; 0.125% MSM, Hr 72): 6.59 log
- Log Growth of Bifidobacteruim bifidum in Media Fortified with MSM ([3]; 0.125% MSM, Hr 80): 9.12 log
- Log Growth of Bifidobacteruim bifidum in Media Fortified with MSM ([3]; 0.125% MSM, Hr 88): 9.12 log
- Log Growth of Bifidobacteruim bifidum in Media Fortified with MSM ([3]; 0.125% MSM, Hr 96): <6.00 log
- logs higher than the maximum of the control ([3]; 0.5% MSM): 0.5 logs
- logs higher than the control ([3]; 0.5% MSM, hour 96): approximately 2 logs
- logs of growth ([3]; 0.5% MSM, hour 96): 8.82 logs
- Log Growth of Bifidobacteruim bifidum in Media Fortified with MSM ([3]; 0.5% MSM, Hr 0): 1.00 log
- Log Growth of Bifidobacteruim bifidum in Media Fortified with MSM ([3]; 0.5% MSM, Hr 8): 2.84 log
- Log Growth of Bifidobacteruim bifidum in Media Fortified with MSM ([3]; 0.5% MSM, Hr 16): 7.45 log
- Log Growth of Bifidobacteruim bifidum in Media Fortified with MSM ([3]; 0.5% MSM, Hr 24): 8.81 log
- Log Growth of Bifidobacteruim bifidum in Media Fortified with MSM ([3]; 0.5% MSM, Hr 32): 11.22 log
- Log Growth of Bifidobacteruim bifidum in Media Fortified with MSM ([3]; 0.5% MSM, Hr 40): 12.09 log
- Log Growth of Bifidobacteruim bifidum in Media Fortified with MSM ([3]; 0.5% MSM, Hr 48): 9.39 log
- Log Growth of Bifidobacteruim bifidum in Media Fortified with MSM ([3]; 0.5% MSM, Hr 56): 9.51 log
- Log Growth of Bifidobacteruim bifidum in Media Fortified with MSM ([3]; 0.5% MSM, Hr 64): 10.34 log
- Log Growth of Bifidobacteruim bifidum in Media Fortified with MSM ([3]; 0.5% MSM, Hr 72): 8.35 log
- Log Growth of Bifidobacteruim bifidum in Media Fortified with MSM ([3]; 0.5% MSM, Hr 80): 10.38 log
- Log Growth of Bifidobacteruim bifidum in Media Fortified with MSM ([3]; 0.5% MSM, Hr 88): 9.70 log
- Log Growth of Bifidobacteruim bifidum in Media Fortified with MSM ([3]; 0.5% MSM, Hr 96): 8.82 log
- logs of growth (estimated, outside the countable range) ([3]; 1% MSM, Hour 96): less than 6 logs
- Log Growth of Bifidobacteruim bifidum in Media Fortified with MSM ([3]; 1% MSM, Hr 0): 1.00 log
- Log Growth of Bifidobacteruim bifidum in Media Fortified with MSM ([3]; 1% MSM, Hr 8): 2.73 log
- Log Growth of Bifidobacteruim bifidum in Media Fortified with MSM ([3]; 1% MSM, Hr 16): 7.73 log
- Log Growth of Bifidobacteruim bifidum in Media Fortified with MSM ([3]; 1% MSM, Hr 24): 8.81 log
- Log Growth of Bifidobacteruim bifidum in Media Fortified with MSM ([3]; 1% MSM, Hr 32): 11.49 log
- Log Growth of Bifidobacteruim bifidum in Media Fortified with MSM ([3]; 1% MSM, Hr 40): 11.19 log
- Log Growth of Bifidobacteruim bifidum in Media Fortified with MSM ([3]; 1% MSM, Hr 48): 10.43 log
- Log Growth of Bifidobacteruim bifidum in Media Fortified with MSM ([3]; 1% MSM, Hr 56): 10.57 log
- Log Growth of Bifidobacteruim bifidum in Media Fortified with MSM ([3]; 1% MSM, Hr 64): 10.66 log
- Log Growth of Bifidobacteruim bifidum in Media Fortified with MSM ([3]; 1% MSM, Hr 72): 8.34 log
- Log Growth of Bifidobacteruim bifidum in Media Fortified with MSM ([3]; 1% MSM, Hr 80): 9.43 log
- Log Growth of Bifidobacteruim bifidum in Media Fortified with MSM ([3]; 1% MSM, Hr 88): 10.41 log
- Log Growth of Bifidobacteruim bifidum in Media Fortified with MSM ([3]; 1% MSM, Hr 96): <6.00 log
- log increase of growth ([3]; 1% MSM, listed as order: Hour 80, Hour 88): 1 log
- extension of the stationary phase ([3]; 5% MSM): 40 h
- logs lower than the control ([3]; 5% MSM, Hour 48): 0.7 logs
- Log Growth of Bifidobacteruim bifidum in Media Fortified with MSM ([3]; 5% MSM, Hr 0): 1.12 log
- Log Growth of Bifidobacteruim bifidum in Media Fortified with MSM ([3]; 5% MSM, Hr 8): 2.04 log
- Log Growth of Bifidobacteruim bifidum in Media Fortified with MSM ([3]; 5% MSM, Hr 16): 6.10 log
- Log Growth of Bifidobacteruim bifidum in Media Fortified with MSM ([3]; 5% MSM, Hr 24): 8.43 log
- Log Growth of Bifidobacteruim bifidum in Media Fortified with MSM ([3]; 5% MSM, Hr 32): 11.13 log
- Log Growth of Bifidobacteruim bifidum in Media Fortified with MSM ([3]; 5% MSM, Hr 40): 11.78 log
- Log Growth of Bifidobacteruim bifidum in Media Fortified with MSM ([3]; 5% MSM, Hr 48): 10.70 log
- Log Growth of Bifidobacteruim bifidum in Media Fortified with MSM ([3]; 5% MSM, Hr 56): 10.59 log
- Log Growth of Bifidobacteruim bifidum in Media Fortified with MSM ([3]; 5% MSM, Hr 64): 14.32 log
- Log Growth of Bifidobacteruim bifidum in Media Fortified with MSM ([3]; 5% MSM, Hr 72): 8.65 log
- Log Growth of Bifidobacteruim bifidum in Media Fortified with MSM ([3]; 5% MSM, Hr 80): 12.20 log
- Log Growth of Bifidobacteruim bifidum in Media Fortified with MSM ([3]; 5% MSM, Hr 88): 12.31 log
- Log Growth of Bifidobacteruim bifidum in Media Fortified with MSM ([3]; 5% MSM, Hr 96): 9.60 log
- log increase of growth ([3]; […] MSM, Hour 88): 1 log
- logs higher than the maximum of the control ([3]; […] MSM, maximum): 0.72 logs
- Log Growth of Bifidobacteruim bifidum in Media Fortified with MSM ([3]; […] MSM, Hr 96): <6.00 log
- logs higher in growth rate compared to the control ([3]; […] MSM, listed as order: hour 40, Hour 56 to hour 72): 0.7 logs
- maximum growth reached before the control ([3]; all MSM concentrations (hour 32 vs hour 48)): 16 h
- Average Log Stimulation [4]: 0.053 log10 and 0.11 log10
- Average Percent Stimulation [4]: 11.49% and 22.38%
- Average TCID50 [4]: 4.42 log10 and 5.00 log10 and 5.58 log10 and 5.42 log10 and 5.67 log10 and 5.25 log10
- Log Stimulation [4]: 0.08 log10 and 0.00 log10 and 0.17 log10
- TCID50 [4]: 4.25 log10 and 4.50 log10 and 4.75 log10 and 5.00 log10 and 5.25 log10 and 5.50 log10 and 6.00 log10 and 5.75 log10
- Microbial growth (count) [5, 12]: 5.4 × 10^4
- Microbial growth (count) [5, 13]: <10
- Microbial growth (count) [5, 14]: <10
- Log Reduction from Initial Microorganism Inoculum [5, 15]: 5.7 log
- Log Reduction from Initial Microorganism Inoculum [5, 16]: 5.8 log
- Log Reduction from Initial Microorganism Inoculum [5, 17]: 5.8 log
- Microbial growth (count) ([6]; 10% MSM in Preservative Free Cosmetic Composition #2, after 48 hours incubation): 9.0 × 10^2
- Microbial growth (count) ([6]; 10% MSM in Preservative Free Cosmetic Composition #2, after 7 days incubation): <10
- Microbial growth (count) [6, 14]: <10
- Log Reduction from Initial Microorganism Inoculum [6, 15]: 4.3 log
- Log Reduction from Initial Microorganism Inoculum [6, 16]: 5.3 log
- Log Reduction from Initial Microorganism Inoculum [6, 17]: 5.3 log
- Microbial growth (count) ([7]; 10% MSM in cosmetic cream without preservative, 48 hrs-28 days): <10
- Log Reduction from Initial Microorganism Inoculum [7, 15]: 5.6 log
- Log Reduction from Initial Microorganism Inoculum [7, 16]: 5.7 log
- Log Reduction from Initial Microorganism Inoculum [7, 17]: 5.7 log
- Microbial growth (count) [8, 12]: 7.3 × 10^3
- Microbial growth (count) [8, 13]: <10
- Microbial growth (count) [8, 14]: <10
- Log Reduction from Initial Microorganism Inoculum [8, 15]: 5.3 log
- Log Reduction from Initial Microorganism Inoculum [8, 16]: 5.8 log
- Log Reduction from Initial Microorganism Inoculum [8, 17]: 5.8 log
- Microbial growth (count) ([9]; 48 hours after inoculation): 8 × 10^3
- Microbial growth (count) ([9]; 14 days after inoculation): 6 × 10^3
- Microbial growth (count) ([9]; 28 days after inoculation): 5 × 10^2
- Test Product Cytotoxicity [10]: 00
- Average TCID50 [11]: 3.17 log10 and 4.67 log10 and 4.33 log10 and 4.08 log10 and 4.83 log10 and 5.00 log10 and 5.42 log10
- reduction of virus population [11]: more than 1.0 log10
